Patent publication US11072616B2, “Cyclic peptides targeting alpha-4-beta-7 integrin” (Zealand Pharma A/S, priority 2015, dated 2021)

Key:
Aqueous solubility assay = format: physicochemical; conditions: PBS pH 7.4, 4 h, room temperature; for Determined concentration Mean: mean of 3, maximal concentration evaluated 200, 500 or 1000 μM; for Determined concentration Rep 1: replicate 1; for Determined concentration Rep 2: replicate 2; for Determined concentration Rep 3: replicate 3
Experimental: Solutions were incubated for four hours at room temperature and stirred at 600 rpm and run in triplicate. Centrifugation was performed for 15 minutes at 6000 rpm and solution concentration was determined using HPLC-UV (photodiode array detector acquiring between 220 nm, and 300 nm wavelengths).

integrin α4β7 = biological target: T1, integrin α4β7 (Homo sapiens, UniProt P13612+P26010); assay: Integrin α4β7—MAdCAM-1 competition assay (ELISA); format: binding; conditions: ratio a4b1 ELISA IC50 / a4b7 ELISA IC50
T1 sequence (P13612 34-977 limits assumed): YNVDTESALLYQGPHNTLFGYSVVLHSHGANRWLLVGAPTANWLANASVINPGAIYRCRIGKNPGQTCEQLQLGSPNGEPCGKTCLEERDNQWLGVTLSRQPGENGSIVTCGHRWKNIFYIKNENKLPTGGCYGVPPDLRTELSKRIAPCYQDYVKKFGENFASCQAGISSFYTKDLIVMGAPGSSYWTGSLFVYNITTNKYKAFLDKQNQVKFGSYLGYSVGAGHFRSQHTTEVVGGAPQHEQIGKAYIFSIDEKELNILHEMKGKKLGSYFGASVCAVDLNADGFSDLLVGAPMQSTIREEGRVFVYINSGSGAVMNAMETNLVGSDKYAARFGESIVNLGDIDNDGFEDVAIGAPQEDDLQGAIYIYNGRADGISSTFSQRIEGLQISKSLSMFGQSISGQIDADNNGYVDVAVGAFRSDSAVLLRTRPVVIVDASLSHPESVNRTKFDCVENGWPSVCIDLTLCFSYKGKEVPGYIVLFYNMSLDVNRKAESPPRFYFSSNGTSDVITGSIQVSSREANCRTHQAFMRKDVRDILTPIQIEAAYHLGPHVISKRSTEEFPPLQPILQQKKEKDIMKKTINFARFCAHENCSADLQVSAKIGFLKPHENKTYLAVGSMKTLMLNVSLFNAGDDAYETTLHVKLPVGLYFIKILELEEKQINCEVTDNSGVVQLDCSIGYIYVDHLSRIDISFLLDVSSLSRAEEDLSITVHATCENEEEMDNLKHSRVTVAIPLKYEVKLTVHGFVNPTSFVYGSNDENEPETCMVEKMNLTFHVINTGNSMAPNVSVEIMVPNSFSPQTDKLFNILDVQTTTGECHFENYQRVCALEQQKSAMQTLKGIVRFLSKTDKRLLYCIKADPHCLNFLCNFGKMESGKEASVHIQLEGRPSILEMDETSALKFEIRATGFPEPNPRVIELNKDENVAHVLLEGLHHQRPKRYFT
T1 sequence (P26010 20-723 limits assumed): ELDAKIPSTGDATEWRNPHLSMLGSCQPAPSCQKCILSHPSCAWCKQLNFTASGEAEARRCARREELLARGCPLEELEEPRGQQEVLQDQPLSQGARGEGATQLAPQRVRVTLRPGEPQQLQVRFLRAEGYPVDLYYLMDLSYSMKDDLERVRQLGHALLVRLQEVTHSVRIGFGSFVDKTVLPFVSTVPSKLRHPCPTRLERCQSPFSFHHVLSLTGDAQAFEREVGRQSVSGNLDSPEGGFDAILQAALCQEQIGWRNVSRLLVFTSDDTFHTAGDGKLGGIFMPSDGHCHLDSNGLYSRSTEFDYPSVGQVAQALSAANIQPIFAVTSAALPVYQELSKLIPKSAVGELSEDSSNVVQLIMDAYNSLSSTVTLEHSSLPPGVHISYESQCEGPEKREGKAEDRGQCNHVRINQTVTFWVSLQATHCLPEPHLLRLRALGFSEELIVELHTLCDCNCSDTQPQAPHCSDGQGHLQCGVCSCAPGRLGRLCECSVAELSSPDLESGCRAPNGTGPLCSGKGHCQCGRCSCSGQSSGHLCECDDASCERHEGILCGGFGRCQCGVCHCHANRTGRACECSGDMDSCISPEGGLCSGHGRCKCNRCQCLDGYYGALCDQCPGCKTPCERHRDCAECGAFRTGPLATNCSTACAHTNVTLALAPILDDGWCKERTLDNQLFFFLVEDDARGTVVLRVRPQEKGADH
In short: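 Competitive ELISA in which serially diluted compound was incubated with the receptor system for 2 h at room temperature to equilibrium. Wash buffer contained 1 mM MnCl2. Bound Fc-tagged partner was detected with anti-human IgG Fc-HRP and TMB.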

| SMILES | Determined concentration Mean (Aqueous solubility assay) | Determined concentration Rep 1 (Aqueous solubility assay) | Determined concentration Rep 2 (Aqueous solubility assay) | Determined concentration Rep 3 (Aqueous solubility assay) | Selectivity ELISA (integrin α4β7) |
| --- | --- | --- | --- | --- | --- |
| CC(C)C[C@@H]1NC(=O)C2(Cc3ccccc3C2)NC(=O)[C@@H]2CCCN2[C@H](C(=O)NC(C)(C)C)[C@H](C)NC(=O)[C@H]([C@@H](C)O)NC(=O)[C@H](CC(=O)O)NC1=O [UM0132369-01] | 882.5 µM | 874.4 µM | 885.9 µM | 887.3 µM | 14.4 |
| CC(C)C[C@@H]1NC(=O)[C@@H](Cc2ccc(O)cc2)NC(=O)[C@@H]2CCCN2[C@H](C(=O)NC(C)(C)C)[C@H](C)NC(=O)[C@H]([C@@H](C)O)NC(=O)[C@H](CC(=O)O)NC1=O [UM0132375-02] | 954.5 µM | 966.6 µM | 960.0 µM | 936.8 µM |  |
| CC(C)C[C@@H]1NC(=O)[C@@H](Cc2ccncc2)NC(=O)[C@@H]2CCCN2[C@H](C(=O)NC(C)(C)C)[C@H](C)NC(=O)[C@H]([C@@H](C)O)NC(=O)[C@H](CC(=O)O)NC1=O [UM0134700-01] | 994.5 µM | 1044.8 µM | 933.2 µM | 950.6 µM |  |
| CC(C)C[C@@H]1NC(=O)[C@H](CCCN)NC(=O)[C@@H]2CCCN2[C@H](C(=O)NC(C)(C)C)[C@H](C)NC(=O)[C@H]([C@@H](C)O)NC(=O)[C@H](CC(=O)O)NC1=O [UM0132377-01] | 218.6 µM | 225.7 µM | 218.9 µM | 211.2 µM |  |
| CC(C)C[C@@H]1NC(=O)CNC(=O)[C@H](Cc2ccc(O)cc2)NC(=O)[C@@H]2CCCN2[C@H](C(=O)NC(C)(C)C)[C@H](C)NC(=O)[C@H]([C@@H](C)O)NC(=O)[C@H](CC(=O)O)NC1=O [UM0134677-01] | 224.6 µM | 225.4 µM | 230.6 µM | 217.8 µM |  |
| CSCC[C@@H]1NC(=O)[C@@H]2CCCN2[C@H](C(=O)NC(C)(C)C)[C@H](C)NC(=O)[C@H]([C@@H](C)O)NC(=O)[C@H](CC(=O)O)NC(=O)[C@H](CC(C)C)NC1=O [UM0132374-01] | 183.1 µM | 179.4 µM | 184.0 µM | 185.9 µM |  |
| CC(C)C[C@@H]1NC(=O)[C@H](Cc2ccc(O)cc2)NC(=O)[C@@H]2CCCN2[C@H](C(=O)NC(C)(C)C)[C@H](C)NC(=O)[C@H]([C@@H](C)O)NC(=O)[C@H](CC(=O)O)NC1=O [UM0131995-05] | 898.5 µM | 883.9 µM | 897.3 µM | 914.7 µM |  |
| CC(C)C[C@@H]1NC(=O)[C@@H]2CCCN2C(=O)[C@@H]2CCCN2[C@H](C(=O)NC(C)(C)C)[C@H](C)NC(=O)[C@H]([C@@H](C)O)NC(=O)[C@H](CC(=O)O)NC1=O [UM0132366-01] | 467.8 µM | 474.2 µM | 477.4 µM | 451.9 µM |  |
| CC(C)C[C@@H]1NC(=O)C2(CCCC2)NC(=O)[C@@H]2CCCN2[C@H](C(=O)NC(C)(C)C)[C@H](C)NC(=O)[C@H]([C@@H](C)O)NC(=O)[C@H](CC(=O)O)NC1=O [UM0132368-01] | 926.3 µM | 926.3 µM | 917.9 µM | 934.3 µM | 14.9 |
| CC(C)C[C@@H]1NC(=O)[C@H](Cc2ccc(O)cc2)NC(=O)[C@H](C)NC(=O)[C@@H]2CCCN2[C@H](C(=O)NC(C)(C)C)[C@H](C)NC(=O)[C@H]([C@@H](C)O)NC(=O)[C@H](CC(=O)O)NC1=O [UM0134830-01] | 1000.0 µM | 1012.0 µM | 1016.4 µM | 971.7 µM |  |
| CC(C)C[C@@H]1NC(=O)[C@H](CCCCN)NC(=O)[C@@H]2CCCN2[C@H](C(=O)NC(C)(C)C)[C@H](C)NC(=O)[C@H]([C@@H](C)O)NC(=O)[C@H](CC(=O)O)NC1=O [UM0132376-01] | 962.9 µM | 990.7 µM | 958.6 µM | 939.5 µM |  |
| CC(C)C[C@@H]1NC(=O)[C@@H](CCCNC(=N)N)N(C)C(=O)[C@H](Cc2ccc(O)cc2)NC(=O)[C@@H]2CCCN2[C@H](C(=O)NC(C)(C)C)[C@H](C)NC(=O)[C@H]([C@@H](C)O)NC(=O)[C@H](CC(=O)O)NC1=O [Compound 157] |  |  |  |  | 55.3 |
| C=CCOc1ccc(C[C@@H]2NC(=O)[C@@H]3CCCN3[C@H](C(=O)NC(C)(C)C)[C@H](C)NC(=O)[C@H]([C@@H](C)O)NC(=O)[C@H](CC(=O)O)NC(=O)[C@H](CC(C)C)NC2=O)cc1 [UM0132371-01] | 834.5 µM | 786.7 µM | 837.3 µM | 879.6 µM |  |
| CC(C)C[C@@H]1NC(=O)[C@H](Cc2cscn2)NC(=O)[C@@H]2CCCN2[C@H](C(=O)NC(C)(C)C)[C@H](C)NC(=O)[C@H]([C@@H](C)O)NC(=O)[C@H](CC(=O)O)NC1=O [UM0132370-01] | 183.2 µM | 187.0 µM | 182.4 µM | 180.2 µM |  |
| CC(C)C[C@@H]1NC(=O)c2cccc(c2)CNC(=O)[C@@H]2CCCN2[C@H](C(=O)NC(C)(C)C)[C@H](C)NC(=O)[C@H]([C@@H](C)O)NC(=O)[C@H](CC(=O)O)NC1=O [UM0134690-01] | 942.9 µM | 957.3 µM | 950.5 µM | 920.8 µM | 8.7 |
| CC(C)C[C@@H]1NC(=O)[C@@H](CCCN(C)C)NC(=O)[C@@H]2CCCN2[C@H](C(=O)NC(C)(C)C)[C@H](C)NC(=O)[C@H]([C@@H](C)O)NC(=O)[C@H](CC(=O)O)NC1=O [Compound 83] |  |  |  |  | 6.9 |
| CC(C)C[C@@H]1NC(=O)[C@H](CC2CCCCC2)NC(=O)[C@@H]2CCCN2[C@H](C(=O)NC(C)(C)C)[C@H](C)NC(=O)[C@H]([C@@H](C)O)NC(=O)[C@H](CC(=O)O)NC1=O [Compound 7] |  |  |  |  | 1.6 |
| COc1ccc(-c2ccccc2C[C@@H]2NC(=O)[C@@H]3CCCN3[C@H](C(=O)NC(C)(C)C)[C@H](C)NC(=O)[C@H]([C@@H](C)O)NC(=O)[C@H](CC(=O)O)NC(=O)[C@H](CC(C)C)NC(=O)[C@H]3CCCCN3C2=O)cc1 [Compound 137] |  |  |  |  | 7.8 |
| CC(C)C[C@@H]1NC(=O)[C@H]2CCCN2C(=O)[C@H](Cc2cc(Br)c(O)c(Br)c2)NC(=O)[C@@H]2CCCN2[C@H](C(=O)NC(C)(C)C)[C@H](C)NC(=O)[C@H]([C@@H](C)O)NC(=O)[C@H](CC(=O)O)NC1=O [Compound 129] |  |  |  |  | 9.7 |
